From patent US20090041823A1, “Agent-releasing Vascular Prosthesis” (priority 2003, published 2009) come the findings set out here.

The test system of the data set is intimal hyperplasia. The data set is described as follows: Patch plasty implantation at the iliac bifurcation, animal model. It counts as in vivo, mini-pigs of the Gottingen type. On the procedure:
In a last step the prostheses were implanted in a preliminary animal trial in order to show the impact on intimal hyperplasia. Six mini-pigs of the Gottingen type were used as test animals. The Aa iliacae was prepared by a transperitonial access under general i.v. anaesthesia (Thiopental®) and each a multifunctional and a standard prosthesis were introduced into every animal. All animals obtained an antibiotic prophylaxis (Spizef®) and were anticoagulized with heparin.
As medicaments each of paclitaxel, sirolimus and IS was used twice. We have applied patch plasties as the border line between prosthesis and artery is bigger compared to end-to-end anastomoses and we could thus assess intimal hyperplasia in cross-section very well. The animals were again subjected to surgery after six weeks and the iliac bifurcation was explanted. Samples in longitudinal direction were derived from the patch plastics in the proximal and in the distal region, respectively, and samples in transversal direction were derived from the medium region. These samples were fixed in formaldehyde. The further processing comprised dehydration in an increasing alcohol series until embedding into paraffin. The preparations were cut and stained in HE and Tri-PAS. Apart from the extent of IH, also integration and inflammatory reactions were assessed.

`CC(=O)O[C@H]1C(=O)[C@@]2(C)[C@H]([C@H](OC(=O)c3ccccc3)[C@]3(O)C[C@H](OC(=O)[C@H](O)[C@@H](NC(=O)c4ccccc4)c4ccccc4)C(C)=C1C3(C)C)[C@]1(OC(C)=O)CO[C@@H]1C[C@@H]2O` [paclitaxel]: the “integration of the prosthesis” value (explanted after 6 weeks) was “well integrated from outside”. Moreover, the endothelialization entry (patch plasty, explanted after six weeks) is “complete suppression of endothelialization”.
